Source: ChEMBL document CHEMBL4316608, “Artemisinin-indole and artemisinin-imidazole hybrids: Synthesis, cytotoxic evaluation and reversal effects on multidrug resistance in MCF-7/ADR cells” (Bioorg Med Chem Lett, 2019)
pIC50: −log10 of the molar value.

System: L02
Assay: Cytotoxicity against human L02 cells measured after 48 hrs by MTT assay
Assay type: cell-based
Conditions: L02, 48 h

`C[C@H]1[C@H](OC(=O)CCC(=O)OCCn2cnc(C#N)c2C#N)O[C@@H]2O[C@@]3(C)CC[C@H]4[C@H](C)CC[C@@H]1[C@@]24OO3` and `C[C@H]1[C@H](OC(=O)CCC(=O)OCCn2ccnc2[N+](=O)[O-])O[C@@H]2O[C@@]3(C)CC[C@H]4[C@H](C)CC[C@@H]1[C@@]24OO3` are within 0.2 log units of each other in pIC50: 4.31 for the first, 4.30 for the second.

`C[C@H]1[C@H](OC(=O)CCC(=O)OCCCCn2cnc(Br)c2)O[C@@H]2O[C@@]3(C)CC[C@H]4[C@H](C)CC[C@@H]1[C@@]24OO3` gave a pIC50 of 4.38.

System: not listed separately
Assay: Toxicity in human MCF7 cells assessed as inhibition of cell proliferation at 5 uM measured after 48 hrs by MTT assay
Assay type: cell-based
Conditions: not given

Going from `C[C@H]1[C@H](OC(=O)CCC(=O)OCCn2cnc(C#N)c2C#N)O[C@@H]2O[C@@]3(C)CC[C@H]4[C@H](C)CC[C@@H]1[C@@]24OO3` to `C[C@H]1[C@H](OC(=O)CCC(=O)OCCn2ccnc2[N+](=O)[O-])O[C@@H]2O[C@@]3(C)CC[C@H]4[C@H](C)CC[C@@H]1[C@@]24OO3`, the inhibition at 48 h, 5 µM falls from 13.7% to 13.5%.

Compound `C[C@H]1[C@H](OC(=O)CCC(=O)OCCCCn2cnc(Br)c2)O[C@@H]2O[C@@]3(C)CC[C@H]4[C@H](C)CC[C@@H]1[C@@]24OO3` has an inhibition at 48 h, 5 µM of 8.95%.

System: MDA-MB-231
Assay: Antiproliferative activity against human MDA-MB-231 cells measured after 48 hrs by MTT assay
Assay type: functional, cell-based
Conditions: MDA-MB-231, 48 h

Going from `C[C@H]1[C@H](OC(=O)CCC(=O)OCCn2cnc(C#N)c2C#N)O[C@@H]2O[C@@]3(C)CC[C@H]4[C@H](C)CC[C@@H]1[C@@]24OO3` to `C[C@H]1[C@H](OC(=O)CCC(=O)OCCn2ccnc2[N+](=O)[O-])O[C@@H]2O[C@@]3(C)CC[C@H]4[C@H](C)CC[C@@H]1[C@@]24OO3`, the pIC50 rises from < 4.00 to 4.41. The second is the more potent here.

With `C[C@H]1[C@H](OC(=O)CCC(=O)OCCCCn2cnc(Br)c2)O[C@@H]2O[C@@]3(C)CC[C@H]4[C@H](C)CC[C@@H]1[C@@]24OO3` the pIC50 was < 4.00.

System: MCF7
Assay: Antiproliferative activity against human MCF7 cells measured after 48 hrs by MTT assay
Assay type: functional, cell-based
Conditions: MCF7, 48 h

`C[C@H]1[C@H](OC(=O)CCC(=O)OCCn2cnc(C#N)c2C#N)O[C@@H]2O[C@@]3(C)CC[C@H]4[C@H](C)CC[C@@H]1[C@@]24OO3` and `C[C@H]1[C@H](OC(=O)CCC(=O)OCCn2ccnc2[N+](=O)[O-])O[C@@H]2O[C@@]3(C)CC[C@H]4[C@H](C)CC[C@@H]1[C@@]24OO3` are within 0.2 log units of each other in pIC50: 4.97 for the first, 4.79 for the second.

For `C[C@H]1[C@H](OC(=O)CCC(=O)OCCCCn2cnc(Br)c2)O[C@@H]2O[C@@]3(C)CC[C@H]4[C@H](C)CC[C@@H]1[C@@]24OO3`, the pIC50 was 4.93.

System: NCI/ADR-RES
Assay: Potentiation of adriamycin-induced antiproliferative activity against human MCF7/ADR cells assessed as fold reduction in adriamycin IC50 at 5 uM measured after 48 hrs by MTT assay
Assay type: functional
Conditions: not given

Compared with `C[C@H]1[C@H](OC(=O)CCC(=O)OCCn2cnc(C#N)c2C#N)O[C@@H]2O[C@@]3(C)CC[C@H]4[C@H](C)CC[C@@H]1[C@@]24OO3`, `C[C@H]1[C@H](OC(=O)CCC(=O)OCCn2ccnc2[N+](=O)[O-])O[C@@H]2O[C@@]3(C)CC[C@H]4[C@H](C)CC[C@@H]1[C@@]24OO3` is higher in “fold change (FC)” value: 5.41 for the first, 27.09 for the second.

In the case of `C[C@H]1[C@H](OC(=O)CCC(=O)OCCCCn2cnc(Br)c2)O[C@@H]2O[C@@]3(C)CC[C@H]4[C@H](C)CC[C@@H]1[C@@]24OO3`, the “fold change (FC)” value was 5.56.

System: A549
Assay: Antiproliferative activity against human A549 cells measured after 48 hrs by MTT assay
Assay type: functional, cell-based
Conditions: A549, 48 h

`C[C@H]1[C@H](OC(=O)CCC(=O)OCCn2cnc(C#N)c2C#N)O[C@@H]2O[C@@]3(C)CC[C@H]4[C@H](C)CC[C@@H]1[C@@]24OO3` and `C[C@H]1[C@H](OC(=O)CCC(=O)OCCn2ccnc2[N+](=O)[O-])O[C@@H]2O[C@@]3(C)CC[C@H]4[C@H](C)CC[C@@H]1[C@@]24OO3` are within 0.2 log units of each other in pIC50: 4.91 for the first, 4.85 for the second.

For `C[C@H]1[C@H](OC(=O)CCC(=O)OCCCCn2cnc(Br)c2)O[C@@H]2O[C@@]3(C)CC[C@H]4[C@H](C)CC[C@@H]1[C@@]24OO3`, the pIC50 was 4.72.

System: HepG2
Assay: Antiproliferative activity against human HepG2 cells measured after 48 hrs by MTT assay
Assay type: functional, cell-based
Conditions: HepG2, 48 h

`C[C@H]1[C@H](OC(=O)CCC(=O)OCCn2cnc(C#N)c2C#N)O[C@@H]2O[C@@]3(C)CC[C@H]4[C@H](C)CC[C@@H]1[C@@]24OO3` and `C[C@H]1[C@H](OC(=O)CCC(=O)OCCn2ccnc2[N+](=O)[O-])O[C@@H]2O[C@@]3(C)CC[C@H]4[C@H](C)CC[C@@H]1[C@@]24OO3` are within 0.2 log units of each other in pIC50: 4.59 for the first, 4.62 for the second.

With `C[C@H]1[C@H](OC(=O)CCC(=O)OCCCCn2cnc(Br)c2)O[C@@H]2O[C@@]3(C)CC[C@H]4[C@H](C)CC[C@@H]1[C@@]24OO3` the pIC50 was 4.45.
